15 molecules from PubChem BioAssay AID248 (DTP/NCI, 2004) can be followed below.

Each structure is given as a SMILES string. Where “and” joins values, the source holds several entries; their conditions need not be identical. Equal values may be shown once. Toxic doses and inconclusive results are not listed.

This assay deals with L1210 leukemia ip in BDF1 mice, survival T/C. Briefly: NCI In Vivo Anticancer Drug Screen. Data for tumor model L1210 Leukemia (intraperitoneal) in B6D2F1 (BDF1) mice. The following applies: endpoint: mean survival time, higher = longer survival. In outline: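 Read-out is survival time, reported as the treated-group measurement over the vehicle-control measurement.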
[1] abbreviates: dose: 100.0 mg/kg/injection, schedule: Q01DX009 (ip), vehicle: saline with Tween-80.
The mark [2] stands for this setting: dose: 200.0 mg/kg/injection, schedule: Q01DX009 (ip), vehicle: saline with Tween-80.
Where [3] appears, read: dose: 400.0 mg/kg/injection, schedule: Q01DX009 (ip), vehicle: saline with Tween-80.
Where [4] appears, read: dose: 100.0 mg/kg/injection, schedule: Q04DX003 (ip), vehicle: saline sonified.
The mark [5] stands for this setting: dose: 200.0 mg/kg/injection, schedule: Q04DX003 (ip), vehicle: saline sonified.
Where [6] appears, read: dose: 400.0 mg/kg/injection, schedule: Q04DX003 (ip), vehicle: saline sonified.
[7] abbreviates: dose: 100.0 mg/kg/injection, schedule: Q01DX009 (ip), vehicle: Klucel (hydroxypropylcellulose) (HPC).
[8] abbreviates: dose: 100.0 mg/kg/injection, schedule: Q04DX003 (ip), vehicle: Klucel (hydroxypropylcellulose) (HPC).
Setting [9] is: dose: 200.0 mg/kg/injection, schedule: Q01DX009 (ip), vehicle: Klucel (hydroxypropylcellulose) (HPC).
Setting [10] is: dose: 200.0 mg/kg/injection, schedule: Q04DX003 (ip), vehicle: Klucel (hydroxypropylcellulose) (HPC).
Setting [11] is: dose: 400.0 mg/kg/injection, schedule: Q04DX003 (ip), vehicle: Klucel (hydroxypropylcellulose) (HPC).
The mark [12] stands for this setting: dose: 100.0 mg/kg/injection, schedule: Q04DX002 (ip), vehicle: saline with Tween-80.
Setting [13] is: dose: 200.0 mg/kg/injection, schedule: Q04DX002 (ip), vehicle: saline with Tween-80.
Setting [14] is: dose: 400.0 mg/kg/injection, schedule: Q04DX002 (ip), vehicle: saline with Tween-80.

Turning to `CCOC(=O)C(N)Cc1ccc(N(CCCl)CCCl)cc1` (configuration not stated), the T/C is, setting by setting: (dose: 0.06 mg/kg/injection, schedule: Q01DX Z (ip), vehicle: saline) 99 % of control; (dose: 0.13 mg/kg/injection, schedule: Q01DX Z (ip), vehicle: saline) 124 % of control; (dose: 0.5 mg/kg/injection, schedule: Q01DX Z (oral), vehicle: saline) 120 % of control; (dose: 2.0 mg/kg/injection, schedule: Q01DX Z (ip), vehicle: saline) 122 % of control; (dose: 4.0 mg/kg/injection, schedule: Q01DX Z (ip), vehicle: saline) 161 % of control and 190 % of control; (dose: 4.0 mg/kg/injection, schedule: Q01DX Z (oral), vehicle: saline) 162 % of control and 168 % of control. Further, the T/C (dose: 6.0 mg/kg/injection, schedule: Q01DX Z (ip), vehicle: saline) is 160 % of control and 164 % of control and 202 % of control; the T/C (dose: 9.0 mg/kg/injection, schedule: Q01DX Z (ip), vehicle: saline) was 162 % of control and 164 % of control and 172 % of control; the T/C (dose: 13.5 mg/kg/injection, schedule: Q01DX Z (ip), vehicle: saline) was 165 % of control; the T/C (dose: 16.0 mg/kg/injection, schedule: Q01DX Z (oral), vehicle: saline) was 87 % of control and 88 % of control; the T/C (dose: 20.0 mg/kg/injection, schedule: Q01DX Z (ip), vehicle: saline) was 97 % of control.
Regarding `c1ccc(CCN2COc3c(ccc4cccnc34)C2)cc1`, the T/C is 102 % of control (dose: 100.0 mg/kg/injection, schedule: Q04DX003 (ip), vehicle: saline with Tween-80) and 90 % of control (dose: 400.0 mg/kg/injection, schedule: Q04DX003 (ip), vehicle: saline with Tween-80).
Turning to `CN(C)c1ccc(/C=N/NC=O)c(Cl)c1`, the T/C (dose: 10.0 mg/kg/injection, schedule: Q01DX001 (ip), vehicle: acetone) was 103 % of control; the T/C (dose: 20.0 mg/kg/injection, schedule: Q01DX001 (ip), vehicle: acetone) is 110 % of control; the T/C (dose: 40.0 mg/kg/injection, schedule: Q01DX001 (ip), vehicle: acetone) was 95 % of control.
`O=C1C=CC(=Nc2ccccc2Cl)O1`: the T/C is, setting by setting: under setting [1], 95 % of control; under setting [2], 93 % of control; under setting [3], 94 % of control.
On to `CC(C)N=C(N)c1ccc(NC(=O)c2ccc(C(=O)Nc3ccc(C(N)=NC(C)C)cc3)cc2)cc1`, for which the T/C runs as follows: (dose: 0.12 mg/kg/injection, schedule: Q01DX Z (ip), vehicle: water) 101 % of control; (dose: 0.25 mg/kg/injection, schedule: Q01DX Z (ip), vehicle: water) 108 % of control; (dose: 0.5 mg/kg/injection, schedule: Q01DX Z (ip), vehicle: water) 113 % of control; (dose: 1.0 mg/kg/injection, schedule: Q01DX Z (ip), vehicle: water) 162 % of control; (dose: 1.25 mg/kg/injection, schedule: Q01DX Z (ip), vehicle: other) 237 % of control; (dose: 2.5 mg/kg/injection, schedule: Q01DX Z (ip), vehicle: other) 172 % of control. The T/C reads like this: (dose: 5.0 mg/kg/injection, schedule: Q01DX Z (ip), vehicle: other) 118 % of control; (dose: 62.0 mg/kg/injection, schedule: Q01DX Z (oral), vehicle: alkali diluted with CMC) 104 % of control; (dose: 125.0 mg/kg/injection, schedule: Q01DX Z (oral), vehicle: alkali diluted with CMC) 93 % of control; (dose: 250.0 mg/kg/injection, schedule: Q01DX Z (oral), vehicle: alkali diluted with CMC) 96 % of control; (dose: 500.0 mg/kg/injection, schedule: Q01DX Z (oral), vehicle: alkali diluted with CMC) 90 % of control.
For the molecule `CCN(CC)CCOc1ccc(C(=O)/C(=C/c2ccc(OC)cc2)c2ccccc2)cc1`, the T/C (dose: 100.0 mg/kg/injection, schedule: Q04DX003 (sc), vehicle: olive oil, sesame oil, peanut oil) is 100 % of control; the T/C (dose: 200.0 mg/kg/injection, schedule: Q04DX003 (sc), vehicle: olive oil, sesame oil, peanut oil) was 96 % of control; the T/C (dose: 400.0 mg/kg/injection, schedule: Q04DX003 (sc), vehicle: olive oil, sesame oil, peanut oil) was 108 % of control.
On to `COc1cc(C=Nc2ccc3c(c2)Cc2ccccc2-3)ccc1O`, for which the T/C was 94 % of control under setting [4], 97 % of control under setting [5] and 95 % of control under setting [6].
Take `CCC/C=[CH]/[Hg][Cl]`: the T/C by setting is: (dose: 6.25 mg/kg/injection, schedule: Q01DX009 (ip), vehicle: other) 93 % of control; (dose: 6.25 mg/kg/injection, schedule: Q04DX003 (ip), vehicle: saline sonified) 95 % of control; (dose: 12.5 mg/kg/injection, schedule: Q01DX009 (ip), vehicle: other) 94 % of control; (dose: 12.5 mg/kg/injection, schedule: Q04DX003 (ip), vehicle: saline sonified) 95 % of control; (dose: 25.0 mg/kg/injection, schedule: Q01DX009 (ip), vehicle: other) 97 % of control; (dose: 25.0 mg/kg/injection, schedule: Q04DX003 (ip), vehicle: saline sonified) 106 % of control.
As for `CC(C)c1ccc(C(=O)Nc2ccc(OCCCc3c(N)nc(N)nc3N)cc2)cc1S(=O)(=O)F`, the T/C was 93 % of control (dose: 100.0 mg/kg/injection, schedule: Q01DX001 (ip), vehicle: Klucel (hydroxypropylcellulose) (HPC)); 98 % of control (dose: 200.0 mg/kg/injection, schedule: Q01DX001 (ip), vehicle: Klucel (hydroxypropylcellulose) (HPC)); 96 % of control (dose: 400.0 mg/kg/injection, schedule: Q01DX001 (ip), vehicle: Klucel (hydroxypropylcellulose) (HPC)).
Consider `COc1ccc(C(=O)NC(=S)Nc2ccccc2F)cc1`, for which the T/C under setting [7] was 93 % of control; the T/C under setting [8] was 94 % of control; the T/C under setting [9] was 90 % of control; the T/C under setting [10] was 93 % of control; the T/C under setting [11] was 94 % of control.
For `COc1ccc(/C=N/N=C(\N)N[N+](=O)[O-])cc1OC`, the T/C by setting is: under setting [1], 102 % of control; under setting [4], 92 % of control; under setting [2], 98 % of control; under setting [5], 97 % of control; under setting [3], 97 % of control; under setting [6], 91 % of control.
`CCCCCCCCCCCCCCCCC(C)(O)C#CC(C)(O)CCCCCCCCCCCCCCCC` (configuration not stated): the T/C reads like this: (dose: 100.0 mg/kg/injection, schedule: Q01DX009 (ip), vehicle: other) 101 % of control; under setting [12], 101 % of control; (dose: 200.0 mg/kg/injection, schedule: Q01DX009 (ip), vehicle: other) 97 % of control; under setting [13], 90 % of control; (dose: 400.0 mg/kg/injection, schedule: Q01DX009 (ip), vehicle: other) 101 % of control; under setting [14], 97 % of control.
Consider `Nc1ccccc1Oc1ccccc1`, for which the T/C is 94 % of control under setting [7]; 97 % of control under setting [8]; 97 % of control under setting [9]; 98 % of control under setting [10]; 100 % of control (dose: 400.0 mg/kg/injection, schedule: Q01DX009 (ip), vehicle: Klucel (hydroxypropylcellulose) (HPC)); 101 % of control under setting [11].
`CCOC(=O)OCc1ccccc1`: the T/C was 94 % of control under setting [12], 109 % of control under setting [13] and 102 % of control under setting [14].
`O=C(Nc1ccc(NC(=O)OCc2ccccc2)c(Cl)c1)OCc1ccccc1`: the T/C (dose: 75.0 mg/kg/injection, schedule: Q01DX001 (ip), vehicle: Klucel (hydroxypropylcellulose) (HPC)) was 93 % of control; the T/C (dose: 75.0 mg/kg/injection, schedule: Q01DX009 (ip), vehicle: Klucel (hydroxypropylcellulose) (HPC)) was 92 % of control; the T/C (dose: 150.0 mg/kg/injection, schedule: Q01DX001 (ip), vehicle: Klucel (hydroxypropylcellulose) (HPC)) is 95 % of control; the T/C (dose: 150.0 mg/kg/injection, schedule: Q01DX009 (ip), vehicle: Klucel (hydroxypropylcellulose) (HPC)) is 94 % of control; the T/C (dose: 300.0 mg/kg/injection, schedule: Q01DX001 (ip), vehicle: Klucel (hydroxypropylcellulose) (HPC)) was 95 % of control; the T/C (dose: 300.0 mg/kg/injection, schedule: Q01DX009 (ip), vehicle: Klucel (hydroxypropylcellulose) (HPC)) was 94 % of control.
